Molecules are shown by their SMILES.

Assay [1] has as its system THP1 cells. Nature of the assay: Lipopolysaccharide-activated THP1 cell TNF production assay. The settings on record: Homo sapiens, THP-1; LPS-induced TNF-α production in THP1 cells. Format: cell-based, human. The procedure, abridged: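 THP1 cells at 1E6/mL were stimulated with LPS (1 μg/mL prepared stock) alongside 3-fold serially diluted compound for 3 h at 37 °C. Secreted TNF-α was quantified by electrochemiluminescence sandwich immunoassay. Percent of DMSO control was fitted to a 4-parameter logistic equation.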

Assay [2] concerns monocytes. The assay can be described thus: Lipopolysaccharide-activated monocyte TNF production assay (LPS induced TNF release). Format: cell-based, human. To be noted: Homo sapiens, Monocyte; LPS induced TNF release from monocytes; read-out: LPS induced TNFa. The procedure, abridged:
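Adherent monocytes from human PBMCs were pretreated with compound 60 min, then stimulated with E. coli LPS (30 ng/mL stock added) for 4 h at 37 °C. Supernatant TNF-α measured by sandwich ELISA; concentration giving 50% TNF reduction derived by polynomial fit.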

Assay [3] concerns the target p38α (Homo sapiens, UniProt Q16539). The assay can be described thus: p38 in-vitro HTRF enzyme assay. The settings on record: IC50 value ranges. Format: biochemical. An outline of the steps: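 Activated recombinant human p38α with ATP and 100 nM GST-ATF2-Avitag, 1 h at RT in Tris pH 7.5/MgCl2 buffer; compound 10-point 3-fold series from about 1 μM final. HTRF 665/620 nm ratio; IC50 from 4-parameter fit, Ki via Cheng-Prusoff with experimental ATP Km.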

Sequence of p38α (Q16539 whole entry): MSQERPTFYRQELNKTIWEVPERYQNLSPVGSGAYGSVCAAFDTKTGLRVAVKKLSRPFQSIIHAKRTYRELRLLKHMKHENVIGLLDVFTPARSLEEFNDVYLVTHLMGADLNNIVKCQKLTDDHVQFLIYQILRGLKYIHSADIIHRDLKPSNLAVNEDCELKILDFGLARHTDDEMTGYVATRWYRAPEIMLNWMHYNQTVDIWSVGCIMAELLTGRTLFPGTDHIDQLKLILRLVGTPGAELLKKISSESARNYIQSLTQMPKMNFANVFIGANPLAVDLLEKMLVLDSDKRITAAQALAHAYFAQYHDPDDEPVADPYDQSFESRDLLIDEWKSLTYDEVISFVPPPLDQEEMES

Regarding `Cc1ccc(C(=O)NC2CC2)cc1-c1ccn2c(C(C)(C)C)nnc2c1` [Example 105, N-cyclopropyl-3-(3-(1,1-dimethylethyl)[1,2,4]triazolo[4,3-a]pyridin-7-yl)-4-methylbenzamide], the IC50 is 25 to 100 nM in assay [1], 25 to 100 nM in assay [2] and below 25 nM in assay [3].

Regarding `Cc1ccc(C(=O)NC2CC2)cc1-c1cc2nnc(-c3ccccc3Cl)n2cc1C` [Example 35, 3-(3-(2-chlorophenyl)-6-methyl[1,2,4]triazolo[4,3-a]pyridin-7-yl)-N-cyclopropyl-4-methylbenzamide], the IC50 in assay [1] was below 25 nM; in assay [2] it was 25 to 100 nM; in assay [3], below 25 nM.

With `Cc1ccc(C(=O)Nc2ccnn2C)cc1-c1ccn2c(-c3cccnc3C)nnc2c1` [Example 33, 4-methyl-N-(1-methyl-1H-pyrazol-5-yl)-3-(3-(2-methyl-3-pyridinyl)[1,2,4]triazolo[4,3-a]pyridin-7-yl)benzamide], the IC50 is 100 to 250 nM in assay [1], 250 to 1000 nM in assay [2] and 25 to 100 nM in assay [3].

For `Cc1ccc(C(=O)NC2CC2)cc1-c1ccn2c(-c3cccc(S(C)(=O)=O)c3)nnc2c1` [Example 18, N-cyclopropyl-4-methyl-3-(3-(3-(methylsulfonyl)phenyl)[1,2,4]triazolo[4,3-a]pyridin-7-yl)benzamide], the values for the IC50 in assay [1], in assay [2] and in assay [3] were 250 to 1000 nM, 100 to 250 nM and 25 to 100 nM, respectively.

Regarding `Cc1ccc(C(=O)NC2CC2)cc1-c1ccn2c(-c3ccc(S(C)(=O)=O)cc3)nnc2c1` [Example 12, N-cyclopropyl-4-methyl-3-(3-(4-(methylsulfonyl)phenyl)[1,2,4]triazolo[4,3-a]pyridin-7-yl)benzamide], the IC50 in assay [1] was 1000 to 5000 nM; in assay [2] it was 250 to 1000 nM; in assay [3], 25 to 100 nM.

Consider `Cc1ccc(C(=O)NC2CC2)cc1-c1ccn2c(-c3c(Cl)cccc3Cl)nnc2c1` [Example 62, N-cyclopropyl-3-(3-(2,6-dichlorophenyl)[1,2,4]triazolo[4,3-a]pyridin-7-yl)-4-methylbenzamide], for which the IC50 in assay [1], in assay [2] and in assay [3] was below 25 nM in each case.

Take `CCNC(=O)c1ccc(C)c(-c2ccn3c(-c4ccccc4Cl)nnc3c2)c1` [Example 52, 3-(3-(2-chlorophenyl)[1,2,4]triazolo[4,3-a]pyridin-7-yl)-N-ethyl-4-methylbenzamide]: the IC50 is 100 to 250 nM in assay [1], 100 to 250 nM in assay [2] and below 25 nM in assay [3].

As to `Cc1c(F)cc(C(=O)Nc2ccon2)cc1-c1ccn2c(-c3c(F)cccc3F)nnc2c1` [Example 92, 3-(3-(2,6-difluorophenyl)[1,2,4]triazolo[4,3-a]pyridin-7-yl)-5-fluoro-N-3-isoxazolyl-4-methylbenzamide], the IC50 in assay [1], in assay [2] and in assay [3] was below 25 nM each time.

As to `Cc1ccc(C(N)=O)cc1-c1ccn2c(N)nnc2c1` [Example 24, 3-(3-amino[1,2,4]triazolo[4,3-a]pyridin-7-yl)-4-methylbenzamide], the IC50 in assay [1], in assay [2] and in assay [3] was 1000 to 5000 nM each time.

Consider `Cc1ccc(C(=O)NC2CC2)cc1-c1ccn2c(-c3sccc3C)nnc2c1` [Example 53, N-cyclopropyl-4-methyl-3-(3-(3-methyl-2-thienyl)[1,2,4]triazolo[4,3-a]pyridin-7-yl)benzamide], for which the results for the IC50 in assay [1], in assay [2] and in assay [3] were 25 to 100 nM, 25 to 100 nM and below 25 nM, respectively.

`Cc1c(F)cc(C(=O)NC2CC2)cc1-c1ccn2c(-c3c(Cl)cccc3Cl)nnc2c1` [Example 59, N-cyclopropyl-3-(3-(2,6-dichlorophenyl)[1,2,4]triazolo[4,3-a]pyridin-7-yl)-5-fluoro-4-methylbenzamide]: the IC50 in assay [1], in assay [2] and in assay [3] was below 25 nM each time.

Consider `Cc1ccc(C(=O)NC2CC2)cc1-c1ccn2c(-c3c(C)cccc3Cl)nnc2c1` [Example 81, 3-(3-(2-chloro-6-methylphenyl)[1,2,4]triazolo[4,3-a]pyridin-7-yl)-N-cyclopropyl-4-methylbenzamide], for which the IC50 in assay [1], in assay [2] and in assay [3] was below 25 nM in each case.

On to `Cc1ccc(C(=O)Nc2ccnn2C)cc1-c1ccn2c(-c3ccccc3Cl)ncc2c1` [Example 9, 3-(3-(2-chlorophenyl)imidazo[1,5-a]pyridin-7-yl)-4-methyl-N-(1-methyl-1H-pyrazol-5-yl)benzamide], for which the IC50 in assay [1] was below 25 nM; in assay [2], 25 to 100 nM; in assay [3] it was below 25 nM.

In the case of `Cc1ccc(C(=O)Nc2ccnn2C)cc1-c1ccn2c(-c3cccc(F)c3Cl)nnc2c1` [Example 41, 3-(3-(2-chloro-3-fluorophenyl)[1,2,4]triazolo[4,3-a]pyridin-7-yl)-4-methyl-N-(1-methyl-1H-pyrazol-5-yl)benzamide], the IC50 in assay [1] was below 25 nM; in assay [2] it was 25 to 100 nM; in assay [3], below 25 nM.

As for `Cc1ccc(C(=O)NC2CC2)cc1-c1ccn2c(-c3ccccc3C(F)(F)F)nnc2c1` [Example 104, N-cyclopropyl-4-methyl-3-(3-(2-(trifluoromethyl)phenyl)[1,2,4]triazolo[4,3-a]pyridin-7-yl)benzamide], the IC50 in assay [1] was 25 to 100 nM; in assay [2] it was 100 to 250 nM; in assay [3] it was below 25 nM.

For the origin of these results see patent publication US7700593B2, “Imidazo- and triazolo-pyridine compounds and methods of use thereof” (Amgen Inc., priority 2006, dated 2010).
